Data as given in patent publication US20260091136A1, “USING ENHO GENE THERAPY TO TREAT CARDIOMETABOLIC DISEASE” (University of Pittsburgh-of the Commonwealth System of …, priority 2023, published 2026).
Entries after “also recorded” stand apart in the source; their conditions may differ.

Key:
GPR19 [1] = assay: Wildtype and GPR19-knockout mice on HFpEF diet with or without Adropin; type: in vivo
Source text: Wildtype and GPR19-knockout (GPR19-KO) mice were given normal chow (control mice), HFpEF diet without Adropin, or HFpEF with Adropin.

HFpEF mice [2] = assay: Body weight, HFpEF (HFD+L-NAME) mice with daily i.p. recombinant adropin (cohort 2, Examples 3 and 4); type: in vivo, C57BL/6J mice; settings: HFpEF+Adropin vs vehicle-treated HFpEF, 450 nmol/kg daily i.p., day 28
Source text: (§1) Twelve week-old C57BL/6J wild-type male mice were exposed to normal chow, or a combination of 60% high fat diet plus N^ω-nitro-L-arginine methyl ester (L-NAME: 0.5 g/L in drinking water) to induce HFpEF. After 8 weeks of diet, mice were randomly assigned to a control HFpEF group, or to a group receiving daily intraperitoneal injections of recombinant Adropin (450 nmol/kg) for the remaining weeks of the study. All animal experiments were approved by the University of Pittsburgh Institutional Animal Care and Use Committee. […] These changes occurred in the absence of systolic dysfunction (FIG. 6). Each marker of cardiac dysfunction was absent in HFpEF mice treated with Adropin (FIG. 6).
Animal Care and Use. Male C57BL/6J 8-week-old mice were obtained from the Jackson Laboratory and maintained on chow for 4 weeks to acclimate to their new environment. Animals were housed in the University of Pittsburgh animal facility under standard conditions with ad libitum access to water and food and maintained on a constant 12-hour light/dark cycle. At 12 weeks of age, the mice were exposed to normal chow (Chow; 60% carbohydrate, 26% protein, 14% fat), or a combination of high-fat diet (HFD; 20% carbohydrate, 20% protein, 60% fat) plus No-nitro-L-arginine methyl ester (L-NAME: 0.5 g/L) supplemented in their drinking water after adjusting the pH to 7.4 with 1N NaOH to induce HFpEF [10]. […]

HFpEF mice [3] = assay: Intraperitoneal glucose tolerance test (IPGTT), cohort 2; type: in vivo, C57BL/6J mice
Source text: as §1
Animal Care and Use. Male C57BL/6J 8-week-old mice were obtained from the Jackson Laboratory and maintained on chow for 4 weeks to acclimate to their new environment. Animals were housed in the University of Pittsburgh animal facility under standard conditions with ad libitum access to water and food and maintained on a constant 12-hour light/dark cycle. […]
Intraperitoneal Glucose Tolerance Test (IPGTT). […] Blood glucose was measured by tail bleed at set time points using a Bayer Contour Next EZ handheld glucometer (t=15, 30, 45, 60, and 120 min).

HFpEF mice [4] = assay: Echocardiography, cohort 2; type: in vivo, C57BL/6J mice; settings: HFpEF mice treated with Adropin 450 nmol/kg daily i.p.
Source text: as §1
Animal Care and Use. Male C57BL/6J 8-week-old mice were obtained from the Jackson Laboratory and maintained on chow for 4 weeks to acclimate to their new environment. […]
Echocardiography. Mice were anesthetized using isofluorane (1.5%-2.0% v/v by inhalation) and monitored for cardiac functional parameters in the supine position using a Visual Sonics Vevo 3100. […] The left atrial area was quantified in the apical 4-chamber view by tracing the border of the left atrium. Markers of systolic and diastolic function were calculated using standard echocardiography equations. […] Image analysis was performed independently by a blinded sonographer and all parameters were measured at least 3 times, and averages are presented.

LCAD [5] = assay: O-GlcNAc co-immunoprecipitation from heart: LCAD; type: in vivo, C57BL/6J mice; settings: Adropin-treated HFpEF mice, relative to levels in chow mice / HFpEF
Source text: (§2) Animal Care and Use. Male C57BL/6J 8-week-old mice were obtained from the Jackson Laboratory and maintained on chow for 4 weeks to acclimate to their new environment. Animals were housed in the University of Pittsburgh animal facility under standard conditions with ad libitum access to water and food and maintained on a constant 12-hour light/dark cycle. At 12 weeks of age, the mice were exposed to normal chow (Chow; 60% carbohydrate, 26% protein, 14% fat), or a combination of high-fat diet (HFD; 20% carbohydrate, 20% protein, 60% fat) plus No-nitro-L-arginine methyl ester (L-NAME: 0.5 g/L) supplemented in their drinking water after adjusting the pH to 7.4 with 1N NaOH to induce HFpEF [10]. For cohort 1, the mice were subject to the HFpEF diet for 15 weeks. For cohort 2, after 8 weeks of diet, mice were randomly assigned to a control or treatment group receiving daily intraperitoneal injections of either vehicle or recombinant adropin at 450 nmol/kg animal weight prepared in PBS with 0.1% BSA for the remaining 5 weeks of the study. L-NAME supplemented drinking water was changed weekly and adropin was made fresh and sterile filtered before each use.
Co-Immunoprecipitation. […] Images were obtained using LiCor Odyssey CLx System and protein densitometry was measured using the LiCor Image Studio Lite Ver. […]

LCAD [6] = assay: LCAD activity assay in cardiac tissue; type: in vivo, C57BL/6J mice; settings: isolated cardiac tissues; downregulated in HFpEF vs chow
Source text: as §2
LCAD Activity Assay/Biochemical Assays/Enzyme activity assay. […] The reaction was initiated with 60 µM acyl-CoA, and the rate of absorbance change was measured/observed at 600 nm over 45 min. […]

GPR19 [7] = settings: previous work from our group; cited from earlier work
[8] = wildtype HFpEF mice that received Adropin vs wildtype control mice

With “Adropin: recombinant Adropin peptide hormone encoded by the ENHO gene; full-length (SEQ ID NO: 1) or cleaved product of amino acids 34-76 (SEQ ID NO: 2) (CHSRSADVDSLSESSPNSSPGPCPEKAPPPQKPSHEGSYLLQP)” the IVRT (GPR19 [1]; GPR19-KO HFpEF mice vs GPR19-KO control mice, in contrast to wildtype, p-value <0.01) was “significantly greater”, the “diastolic function (MV E/e′)” value (GPR19 [1]; GPR19-KO mice vs control mice, in contrast to wildtype, p-value <0.001) was “remained significantly lower” and the “fasted body weight of HFpEF mice relative to HFpEF mice that received Adropin” value (GPR19 [1]; GPR19-KO mice, p-value <0.0001) was “significantly greater”. For the same substance, the “Adropin-mediated improvement of diastolic function in GPR19-KO HFpEF mice” value (GPR19 [1]; fasted body weight, MV E/e′ and IVRT) was “not observed; also recorded: GPR19-dependent”, the “body weight of GPR19-KO HFpEF mice that received Adropin relative to wildtype HFpEF mice that received Adropin” value (GPR19 [1]; p-value <0.0001) was “significantly greater” and the “diastolic function (MV E/e′)” value (GPR19 [1]; wildtype HFpEF mice that received Adropin vs wildtype HFpEF mice without Adropin) was “increased on average”. For the same substance, the IVRT (GPR19 [1]; [8]) was “not significantly different”, the “diastolic function (MV E/e′)” value (GPR19 [1]; [8]) was “not significantly different” and the IVRT (GPR19 [1]; wildtype HFpEF which received Adropin vs wildtype HFpEF mice without treatment, p-value <0.01) was “significantly lower”. For the same substance, the “fasted body weight of HFpEF mice relative to HFpEF mice that received Adropin” value (GPR19 [1]; wildtype mice, p-value <0.0001) was “significantly greater”, the absolute body weight (HFpEF mice [2]) was “not associated with a significant decrease; also recorded: does not significantly change” and the absolute body weight (HFpEF mice [2]; listed as adropin) was “non-significant decrease”. The “increase in circulating blood glucose levels (IPGTT)” value (HFpEF mice [3]; HFpEF increase vs chow, after adropin treatment) was “significantly attenuated”, the “whole-body glucose tolerance / sensitivity” value (HFpEF mice [3]; HFpEF+Adropin vs HFpEF, 450 nmol/kg daily i.p.) was “significantly restored; also recorded: significantly improves” and the “markers of cardiac (diastolic) dysfunction: increased heart/LV mass, decreased cardiac output, increased IVRT, increased LV MPI” value (HFpEF mice [4]) was “absent; also recorded: improved”. The “markers of cardiac (diastolic) dysfunction: increased heart/LV mass, decreased cardiac output, increased IVRT, increased LV MPI” value (HFpEF mice [4]; listed as adropin) was “absent; also recorded: attenuates”, the “LCAD O-GlcNAcylation” value (LCAD [5]) was “restored; also recorded: reduced” and the “LCAD enzymatic activity (oxidation rates)” value (LCAD [6]) was “restored”. The “Adropin function in cardiac cells” value (GPR19 [7]) was “dependent on GPR19”.
